# Assay results: article PMC6259134, “Synthesis, Antimycobacterial, Antifungal and Photosynthesis-Inhibiting Activity of Chlorinated N-phenylpyrazine-2-carboxamides” (Molecules, 2010)
# Several values for one entry are separate records, joined by “and”; a condition that tells them apart may be missing. Equal values may be shown once. Read-outs that look alike come from different tables or passages of the source.
# Columns and labels:
# M. tuberculosis H37Rv = conditions: cited from earlier work
# [1] = tested on: photosynthetic electron transport (PET) in spinach chloroplasts; parameters: method as in earlier work; conditions: standard, read-out: PET inhibition IC50; cited from earlier work
# [2] = parameters: method as in PMID 1151976, doi:10.1002/9780470171912.ch3; conditions: Hammett's constant of R3 phenyl substituent; cited from earlier work
# [3] = tested on: M. tuberculosis H37Rv (ATCC27294); assay: In vitro antimycobacterial primary screening (TAACF, BACTEC 460 / MABA); format: cell-based; conditions: Mycobacterium tuberculosis, read-out: Antimycobacterial evaluation Inhibition
# Description: All compounds were assayed in vitro against M. tuberculosis H37Rv. […] None of the tested derivatives overcame this limit, see Table 2.
# Antimycobacterial evaluation was carried out in the tuberculosis antimicrobial acquisition and coordinating facility (TAACF), Southern Research Institute, Birmingham, AL, U.S.A., which is a part of the National Institutes of Health (NIH). Primary screening of all compounds was conducted at 6.25 µg/mL against M. tuberculosis H37Rv (ATCC27294) in BACTEC 12B medium using both BACTEC 460 radiometric system and the Microplate Alamar Blue Assay (MABA). For the results see Table 2.
# [4] = Lipophilicity determination by RP-HPLC (capacity factor k / log k, distributive π parameters); format: physicochemical; conditions: for log k: RP-HPLC, C18, MeOH 70%/H2O 30%, isocratic; for π determined Ph: distributive parameter of phenyl substituents; for π determined Ph / π determined Pyr: calculated from log k; for π determined Pyr: distributive parameter of pyrazine substituents
# Description: The procedure was performed under isocratic conditions with methanol as an organic modifier in the mobile phase using an end-capped non-polar C18 stationary RP column. The results are shown in Table 1 and illustrated in Figure 2. Waters Alliance 2695 XE HPLC separation module and Waters Photodiode Array Detector 2996 (Waters Corp., Milford, MA, USA) were used. Waters Symmetry® C18 5 μm, 4.6 ° 250 mm, Part No. WAT054275 (Waters Corp., Milford, MA, USA) chromatographic column was used. The HPLC separation process was monitored by Empower™ 2 Chromatography Data Software, Waters 2009 (Waters Corp., Milford, MA, USA). The mixture of MeOH (HPLC grade, 70%) and H2O (HPLC–Mili-Q Grade, 30%) was used as a mobile phase. The total flow rate of the column was 1.0 mL/min, injection volume 30 μL, column temperature 30 °C and sample temperature 10 °C were used. The detection wavelength of 210 nm was chosen. The KI methanolic solution was used for the dead time (tD) determination. Retention times (tR) were measured in minutes. The capacity factors k were calculated using the Empower™ 2 Chromatography Data Software according to formula k = (tR - tD)/tD, where tR is the retention time of the solute, whereas tD denotes the dead time obtained using an unretained analyte. Log k, calculated from the capacity factor k, is used as the lipophilicity index converted to log P scale. Distributive π parameters characterizing lipophilicity of the individual substituents were calculated according to the formula π = log kS – log kU, where log kS is the determined capacity factor logarithm of the individual substituted compounds, whereas log kU denotes the determined capacity factor logarithm of the unsubstituted compound, it means π = 0.
# [5] = tested on: Trichophyton mentagrophytes 445; assay: In vitro antifungal susceptibility testing (microdilution broth method); format: cell-based; conditions: T. mentagrophytes; for MIC: Trichophyton mentagrophytes, 445
# [6] = tested on: photosynthetic electron transport (PET) in spinach chloroplasts; assay: Inhibition of photosynthetic electron transport (PET) in spinach chloroplasts (DCPIP photoreduction); format: biochemical, Spinacia oleracea L.
# Description: The activity of the majority of the studied compounds was moderate or low relative to the standard. Chloroplasts were prepared from spinach (Spinacia oleracea L.) according to Masarovičová and Kráľová [26]. […] [27], and the rate of photosynthetic electron transport was monitored as a photoreduction of DCPIP. The measurements were carried out in phosphate buffer (0.02 mol/L, pH 7.2) containing sucrose (0.4 mol/L), MgCl2 (0.005 mol/L) and NaCl (0.015 mol/L). The chlorophyll content was 30 mg/L in these experiments and the samples were irradiated (~100 W/m^2) from 10 cm distance with a halogen lamp (250 W) using a 4 cm water filter to prevent warming of the samples (suspension temperature 22 °C). The studied compounds were dissolved in DMSO due to their limited water solubility. […] The inhibitory efficiency of the studied compounds was manifested by IC50 values, i.e. by molar concentration of the compounds causing 50% decrease in the […] relative to the untreated control.
# [7] = after 72 h, MIC for moulds determined as IC50 value, read-out: Antifungal susceptibility MIC
# [8] = after 120 h, MIC for moulds determined as IC50 value, read-out: Antifungal susceptibility MIC
SMILES,MIC (M. tuberculosis H37Rv) [µg/mL],IC50 [1],σ [2],inhibition at 6.25 µg/mL [3] [%],log k [4],π determined Ph [4],π determined Pyr [4],"MIC [5, 7] [µM]","MIC [5, 8] [µM]","MIC ([5]; incubation time not given, read-out: MIC) [µM]",IC50 [6] [µM],"Antifungal susceptibility MIC ([5]; after 120 h, MIC for moulds determined as IC50 value) [µM]"
O=C(Nc1cccc(C(F)(F)F)c1)c1cnccn1 [N-(3-Trifluoromethylphenyl)pyrazine-2-carboxamide],3.13 to 6.25,,,,,,,,,,,
"CN(C)C(=O)Nc1ccc(Cl)c(Cl)c1 [DCMU, 3-(3,4-dichlorophenyl)-1,1-dimethylurea]",,~1.9 µM and 1.9 µM,,,,,,,,,,
"CC(C)(C)c1ncc(C(=O)Nc2ccc(Cl)c(Cl)c2)nc1Cl [Compound 16, 6-chloro-5-tert-butyl-N-(3,4-dichlorophenyl)pyrazine-2-carboxamide]",,,0.60,0,1.7563,0.51,1.04,62.5,62.5,62.5,130,
"O=C(Nc1cccc(Cl)c1)c1cncc(Cl)n1 [Compound 2, 6-Chloropyrazine-2-carboxylic acid (3-chlorophenyl)amide]",,,0.373,14,0.7864,0.10,0.30,125,125,,262,
"O=C(Nc1ccc(Cl)cc1)c1cncc(Cl)n1 [Compound 6, 6-chloro-N-(4-chlorophenyl)pyrazine-2-carboxamide]",,,0.227,65,0.8185,0.13,0.32,> 500,> 500,,486,
"CC(C)(C)c1ncc(C(=O)Nc2ccc(Cl)cc2)nc1Cl [Compound 8, 6-chloro-5-tert-butyl-N-(4-chlorophenyl)pyrazine-2-carboxamide]",,,0.227,24,1.5015,0.26,1.00,> 250,> 250,,43,
"CC(C)(C)c1ncc(C(=O)Nc2c(Cl)cccc2Cl)nc1Cl [Compound 12, 5-tert-Butyl-6-chloro-N-(2,6-dichlorophenyl)pyrazine-2-carboxamide]",,,0.40,0,1.6631,0.42,1.00,125,125,,61,
O=C(Nc1ccc(Cl)c(Cl)c1)c1cnccn1 [Compound 13],,,0.60,8,0.6962,0.30,0.00,> 250,> 250,,,
"O=C(Nc1c(Cl)cccc1Cl)c1cncc(Cl)n1 [Compound 10, 6-Chloro-N-(2,6-dichlorophenyl)pyrazine-2-carboxamide]",,,0.40,0,0.9456,,,> 250,> 250,,829,
"CC(C)(C)c1cnc(C(=O)Nc2c(Cl)cccc2Cl)cn1 [Compound 11, 5-tert-Butyl-N-(2,6-dichlorophenyl)pyrazine-2-carboxamide]",,,0.40,0,1.2802,0.34,0.61,250,250,,153,
O=C(Nc1ccc(Cl)cc1)c1cnccn1 [Compound 5],,,0.227,4,0.4987,0.09,0.00,> 250,> 250,,1520,
"O=C(Nc1cccc(Cl)c1)c1cnccn1 [Compound 1, Pyrazine-2-carboxylic acid (3-chlorophenyl)amide]",,,0.373,14,0.4914,0.08,0.00,500,> 500,,290,
CC(C)(C)c1cnc(C(=O)Nc2ccc(Cl)c(Cl)c2)cn1 [Compound 15],,,0.60,15,1.3395,0.40,0.62,125,125,,,
CC(C)(C)c1ncc(C(=O)Nc2cccc(C(F)(F)F)c2)nc1Cl [5-tert-butyl-6-chloro-N-(3-trifluoromethylphenyl)pyrazine-2-carboxamide],3.13 to 6.25,,,,,,,,,,,
Cc1ccc(NC(=O)c2cnccn2)cc1I [N-(3-iodo-4-methylphenyl)pyrazine-2-carbox-amide],3.13 to 6.25,,,,,,,,,,,
"O=C(Nc1ccc(Cl)c(Cl)c1)c1cncc(Cl)n1 [Compound 14, 6-chloro-N-(3,4-dichlorophenyl)pyrazine-2-carboxamide]",,,0.60,61,0.9950,0.31,0.28,125,250,,105,
"CC(C)(C)c1ncc(C(=O)Nc2cccc(Cl)c2)nc1Cl [Compound 4, 5-tert-Butyl-6-chloropyrazine-2-carboxylic acid (3-chlorophenyl)amide]",,,0.373,0,1.4896,0.25,1.00,> 250,> 250,,101,
"O=C(Nc1c(Cl)cccc1Cl)c1cnccn1 [Compound 9, N-(2,6-dichlorophenyl)pyrazine-2-carboxamide]",,,0.40,0,0.6656,0.25,0.00,> 500,> 500,,,
"OC(Cn1cncn1)(Cn1cncn1)c1ccc(F)cc1F [FLU, fluconazole, reference compound]",,,,,,,,1.95,3.91,,,3.91
"CC(C)(C)c1cnc(C(=O)Nc2cccc(Cl)c2)cn1 [Compound 3, 5-tert-Butylpyrazine-2-carboxylic acid (3-chlorophenyl)amide]",,,0.373,0,1.0996,,,> 250,> 250,,95.5,
CC(C)(C)c1cnc(C(=O)Nc2ccc(Cl)cc2)cn1 [Compound 7],,,0.227,0,1.1043,0.16,0.61,> 250,> 250,,,
